Earlier results on one molecule are cited in patent US6183121A, “Hepatitis C virus helicase crystals and coordinates that define helicase binding pockets” (priority 1998, dated 2001).

The data set concerns the target UvrD helicase, mutation of a conserved arginine in motif IV (Escherichia coli, UniProt P03018, R284A). Particulars: mutant versus unmutated UvrD; M. C. Hall et al., J. Biol. Chem., 272 (1997).

The structures appear in SMILES notation.

Chain of UvrD helicase, mutation of a conserved arginine in motif IV (P03018 whole entry R284A): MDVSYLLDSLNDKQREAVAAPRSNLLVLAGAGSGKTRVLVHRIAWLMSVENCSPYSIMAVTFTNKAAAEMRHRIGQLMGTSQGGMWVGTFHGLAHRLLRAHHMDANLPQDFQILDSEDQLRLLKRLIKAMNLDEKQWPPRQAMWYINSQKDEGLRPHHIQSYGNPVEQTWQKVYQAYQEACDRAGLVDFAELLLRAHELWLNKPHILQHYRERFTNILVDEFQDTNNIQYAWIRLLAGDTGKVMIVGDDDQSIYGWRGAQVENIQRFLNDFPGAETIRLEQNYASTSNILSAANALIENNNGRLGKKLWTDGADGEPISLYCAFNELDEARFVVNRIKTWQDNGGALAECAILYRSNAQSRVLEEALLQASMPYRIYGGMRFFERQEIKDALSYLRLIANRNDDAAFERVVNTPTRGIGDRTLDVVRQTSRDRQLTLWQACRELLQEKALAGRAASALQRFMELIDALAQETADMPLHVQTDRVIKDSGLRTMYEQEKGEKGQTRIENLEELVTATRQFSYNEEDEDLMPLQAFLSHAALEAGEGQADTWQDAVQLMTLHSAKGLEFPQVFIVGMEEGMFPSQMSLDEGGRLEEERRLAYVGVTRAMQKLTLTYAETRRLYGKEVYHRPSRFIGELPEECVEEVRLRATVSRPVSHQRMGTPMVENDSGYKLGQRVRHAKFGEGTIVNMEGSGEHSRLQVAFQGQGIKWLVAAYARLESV

In the case of `Nc1ncnc2c1ncn2[C@@H]1O[C@H](COP(=O)(O)OP(=O)(O)OP(=O)(O)O)[C@@H](O)[C@H]1O` [ATP], the “increase of the ATP Km” value is on record as 37 fold.
